Where two headings read alike, the source gives them in different places.
Test: Whole-blood PK study (IV, IP and PO) in male CD-1 mice
Type: in vivo, mouse
Conditions: for Bioavailability: read-out: Bioavailability; for cmax: read-out: cmax; for concentration at 0.5 h: 0.50 h; for Vd: read-out: Vss; for Tmax: CD-1, whole blood
Method: Nine male CD-1 mice (25–35 g) were obtained from Hilltop Labs. Duration of acclimation was at least two days. Animals were randomly assigned to the three dose groups (IV, PO, intraperitoneal (IP), N = 3 per group), healthy at the start of the trial, housed one per cage (conventional type with wood chip bedding material), identified by a cage label and maintained in a well-controlled temperature (20–24 C) and humidity (30%-70%) environment with 12 h light/dark cycles. Animals intended for IV dosing were fitted with a jugular vein cannula (JVC, procedure see rat plasma PK study above). The study was not blinded. Food was withheld from the animals for a minimum of 12 h prior to test article administration until 4 h post-dose. Water was offered ad libitum.
C16 was dosed in cassette together with two undisclosed compounds of similar chemical structure. The dose of each test article was 1 mg/kg (IV, JVC, 0.5 mg/mL) or 10 mg/kg (IP and PO gavage, 2 mg/mL). Two respective dosing solutions were prepared (protocol see above) containing 0.5 and 2 mg/mL of C16 (and equal concentrations of the other two test articles) in 20% DMSO / 10% (DMSO / Cremophor EL 1:1) / 70% H2O. Formulations were prepared one day prior to dosing and stored at 4 °C.
Blood samples were taken pre-dose and 5 (except for PO administration), 15, 30 min, 1, 2, 4, and 8 h after dosing. The samples were collected via the tail vein or by cardiac puncture (8 h time point). Blood (25 μL) was collected and pipetted into a tube with 25 μL heparinized water (1 μL of sodium heparin (1000 unit/ml) + 24 μL water) within 30 seconds of collection. The sample was pipetted up and down five times, immediately frozen on dry ice and stored at -60°C to -80°C until analyzed. No necropsy was performed.
Pharmacokinetic parameters were estimated by a non-compartmental model using WinNonlin (v5.2.1 or higher) software. The maximum plasma/blood concentrations (c0) after IV dosing were estimated by extrapolation of the first two time points back to t = 0. The maximum blood concentration (cmax) and the time to reach maximum blood drug concentration (tmax) after PO dosing were derived from the data. The area under the time-concentration curve (AUC) was calculated using the linear trapezoidal rule with calculation to the last quantifiable data point, and with extrapolation to infinity if applicable. Plasma/blood half-life (t1/2) was calculated from 0.693/slope of the terminal elimination phase. Mean residence time (MRT) was calculated by dividing the area under the moment curve (AUMC) by the AUC. Clearance (CL) was calculated from dose/AUC. Steady-state volume of distribution (Vss) was calculated from CL*MRT. Bioavailability was determined by dividing the individual dose-normalized PO AUC values by the respective average dose-normalized intravenous (IV) AUC value. Samples that were below the limit of quantification were not used in the calculation of averages, and were treated as zero for pharmacokinetic data analysis. […]
Sprague-Dawley rats at 10 mg/kg (in 100% DMSO). […]
c Bioavailability determined by dividing the individual dose normalized oral AUC last by the average dose normalized intravenous AUC last value. […]
The dosing solution was prepared as a cassette to contain all three test articles in the same solutions using a vehicle
consisting of 20% DMSO/10% (DMSO/Cremophor EL 1:1)/70% Milli-Q water.
Individual blood concentrations and pharmacokinetic parameters are shown in Table H through Table J. All data are
expressed as ng/mL of the free drug. Samples that were below the limit of quantification were not used in the
calculation of averages. Concentration versus time data are plotted in Fig D through Fig F.
Table H. Individual blood concentrations (ng/mL) and PK parameters for C16 after IV administration in male CD-1 mice at 1 mg/kg.
t (h) 0 (pre-dose) BLOQ BLOQ BLOQ
(1 picture or pasted object on this page, not shown here)

[1] = male, CD-1, mouse, whole blood, ip, 10 mg/kg, male CD-1 mouse, IP 10 mg/kg, average
[2] = male, CD-1, mouse, whole blood, ip, 10 mg/kg, mouse blood, IP 10 mg/kg, individual animals 4-6
[3] = male, CD-1, mouse, whole blood, ip, 10 mg/kg, mouse, IP 10 mg/kg, animals 4-6, read-out: Individual blood concentration
[4] = male, CD-1, mouse, whole blood, ip, 10 mg/kg, whole blood, male CD-1 mouse, IP 10 mg/kg, average
[5] = male, CD-1, mouse, whole blood, iv, 1 mg/kg, male CD-1 mouse, IV 1 mg/kg, average
[6] = male, CD-1, mouse, whole blood, iv, 1 mg/kg, mouse blood, IV 1 mg/kg, individual animals 1-3
[7] = male, CD-1, mouse, whole blood, iv, 1 mg/kg, mouse, IV 1 mg/kg, animals 1-3, read-out: Individual blood concentration
[8] = male, CD-1, mouse, whole blood, po, 10 mg/kg, male CD-1 mouse, PO 10 mg/kg, average
[9] = male, CD-1, mouse, whole blood, po, 10 mg/kg, mouse blood, PO 10 mg/kg, individual animals 7-9
[10] = male, CD-1, mouse, whole blood, po, 10 mg/kg, whole blood, male CD-1 mouse, PO 10 mg/kg, average

Compound: COc1cc(C(=O)/C=C/c2ccc(F)cc2)cc(OC)c1OC [C16, 4-fluoro-3’,4’,5’-trimethoxychalcone]
- time of maximum blood concentration (male CD-1 mouse, IP 10 mg/kg): 15 min
- time of maximum blood concentration (male CD-1 mouse, PO 10 mg/kg): 15 min
- AUC(0-inf) [1]: 114 ng·h/mL
- AUC(0-t) [1]: 109 ng·h/mL
- MRT last [1]: 48 min
- half-life [1]: 48 min
- AUC(0-inf) [2]: 101 ng·h/mL
- AUC(0-t) [2]: 99.2 ng·h/mL
- MRT last [2]: 59.5 min
- half-life [2]: 38.2 min
- Bioavailability [2]: 49.7%
- cmax [2]: 90.3 ng/mL
- concentration at 0.25 h [3]: 90.3 ng/mL
- concentration at 0.5 h [3]: 48.2 ng/mL
- concentration at 1 h [3]: 49.2 ng/mL
- concentration at 2 h [3]: 13.4 ng/mL
- Bioavailability [4]: 54.7%
- cmax [4]: 107 ng/mL
- AUC(0-inf) [5]: 22.4 ng·h/mL
- AUC(0-t) [5]: 20 ng·h/mL
- MRT last [5]: 26 min
- clearance [5]: 750 mL/min/kg
- half-life [5]: 44.8 min
- C0 (male, CD-1, mouse, whole blood, iv, 1 mg/kg, male CD-1 mouse, IV 1 mg/kg, average, extrapolated to t = 0): 76 ng/mL
- AUC(0-inf) [6]: 22.9 ng·h/mL
- AUC(0-t) [6]: 20.2 ng·h/mL
- MRT last [6]: 25.6 min
- clearance [6]: 727 mL/min/kg
- half-life [6]: 49.4 min
- Vd [6]: 32.8 L/kg
- concentration at 0.083 h (male, CD-1, mouse, whole blood, iv, 1 mg/kg, mouse, IV 1 mg/kg, 0.083 h, animals 1-3, read-out: Individual blood concentration): 46.4 ng/mL
- concentration at 0.25 h [7]: 17.3 ng/mL
- concentration at 0.5 h [7]: 8.4 ng/mL
- concentration at 1 h [7]: 4.5 ng/mL
- concentration at 2 h [7]: 2.28 ng/mL
- Vd (male, CD-1, mouse, whole blood, iv, 1 mg/kg, whole blood, male CD-1 mouse, IV 1 mg/kg, average): 32.6 L/kg
- AUC(0-t) [8]: 20.9 ng·h/mL
- MRT last [8]: 82.8 min
- half-life (male, CD-1, mouse, whole blood, po, 10 mg/kg, mouse blood, PO 10 mg/kg, individual animal 7): 176 min
- AUC(0-t) [9]: 23.2 ng·h/mL
- Bioavailability [9]: 11.6%
- Bioavailability [10]: 10.5%
- cmax [10]: 12.5 ng/mL
- Tmax (male, mouse blood, IP 10 mg/kg, individual animals 4-6): 15 min
- Tmax (male, mouse blood, IV 1 mg/kg, individual animals 1-3): 0 min
